# Values joined by “and” are separate entries in the source; they are usually repeats but may differ in a detail not shown here. Identical values can stand only once. “Also recorded” adds a separate entry of the source. Like-named read-outs stand apart in the source and are kept apart here.
# Legend:
# MDA-MB-435S cells = test: Time course of cytotoxicity in MDA-MB-435S cells (MTT); assay type: cell-based, human; conditions: for IC50: MDA-MB 435S; for incubation time to maximal efficacy: MDA-MB-435S cells
# From the text: (§1) Membranes of non-cancerous cell lines are neutral and are resistant to cytolytic peptides, in contrast to cancer cell lines, which have a high phosphatidic acid content in their outer membrane.
# (§2) The melanoma cell line studied was MDA-MB-435S (estrogen receptor alpha negative), breast cancer cell lines MCF-7 and T47D (estrogen receptor alpha positive), ovarian cancer cell lines (OVCAR-3 and SKOV-3), prostate cancer (LNCaP), the non-malignant breast epithelial cell line MCF-10A and the mouse fibroblast cell line NIH:3T3.
# (§3) Cells were seeded into 96 well plates at a density of 10,000 cells/well. […] Controls contained USP saline or 0.1% TritonX-100™ as reference for 0 and 100% cell death, respectively. Incubations were terminated by removing the culture media after 2 minutes, 5 minutes, 15 minutes, 30 minutes, 1 hour, 2 hours, 6 hours, 24 and 48 hours. Cell viability was assessed through formazan conversion assay (MTT assay, (CellTiter 96 Aqueous One, Promega # G3582). Formazan conversion was determined using a BioRad Benchmark Plus microplate spectrophotometer dual wavelengths at 490/630 nm at room temperature).
# (§4) Data were calculated as fraction of absorption in TritonX-100™ containing wells representing 100% cell death versus 0% cell death in saline containing wells. Cytotoxicity was determined as ICso using GraphPad Prism version 5.01 for Windows, GraphPad Software, San Diego California USA according to the program for sigmoidal dose response with variable slope using constraint values of 0 and 100%. 4 wells of each individual set of two 96 well plates were compared and analyzed. Statistical analysis for significance was determined by a two-tailed Student's T-test.
# MCF-7 cells = test: Time course of cytotoxicity in MCF-7 cells (MTT); assay type: cell-based, human; conditions: for incubation time to maximal efficacy: MCF-7 cells
# From the text: as §1, §2, §3, §4
# OVCAR-3 cells = assay type: cell-based, human; conditions: for incubation time to maximal efficacy: OVCAR-3 cells
# From the text: as §1, §2, §3, §4
# SKOV-3 cells = test: Time course of cytotoxicity in SKOV-3 cells (MTT); assay type: cell-based, human
# From the text: as §1, §2, §3, §4
# NIH:3T3 = assay type: cell-based, mouse; conditions: noncancerous cell line 3T3
# Description: as §2, §3
# as §4, with “Statistical analysis for significance was determined by a two-tailed Student's T-test.” left out
# MDA-MB-435S xenograft = test: MDA-MB-435S xenograft, minimal effective dose, once weekly; assay type: in vivo, Nu/Nu mice
# Description: To determine the minimal effective dose necessary to reduce MDA-MB-435S xenograft weights in a single dose regimen, Nu/Nu female mice, outbred strain, age 5 weeks (Charles River), were injected (s.c.) into the interscapular region with a MDA-MB-435S (passage #249)/Matrigel suspension (2.4×10^6 cells/mouse) [Leuschner 2006].
# Each group consisted of 16 mice, which were injected once a week for 3 weeks. A group of 16 mice was sacrificed at the time of treatment start to serve as baseline. Saline injections served as control groups. During the entire study tumor volumes were recorded twice weekly.
# Treatment started on day 16 after tumor cell injection when the tumors were established and continued on days 23 and 30. All remaining mice were necropsied 37 days after tumor cell injection.
# Treatment response was determined by tumor weights and tumor weight change at necropsy compared to saline controls and untargeted CLIP71 treatment. Primary tumors were collected, weighed and prepared for histological evaluation in formalin fixation with 10% PBS buffered formalin. Statistical evaluation of data sets were conducted in GraphPad Prizm 4 and significance calculated by Wilcoxon signed-rank test.
# OVCAR-3 xenograft = test: OVCAR-3 ovarian cancer xenograft; assay type: in vivo, Nu/Nu mice; conditions: for tumor volume: CLIP71 2 mg/kg, cisplatinum 10 mg/kg
# Description: In brief, Nu/Nu female mice, inbred strain, age 5 weeks (Harlan-Sprague Dawley) were injected subcutaneously with a NIH:OVCAR-3 cells/Matrigel suspension (4.6×10^6 cells/mouse). Treatment was started on day 33 after tumor cell injection when the tumors were established and continued on days 41 and 47. The doses for the 3 weekly injections were 0.02, 0.2 and 2 mg/kg body weight, given as a single bolus intravenous injection via lateral tail vein administered once a week for three weeks on days 33, 41 and 47. Necropsies were conducted on day 52. Data are presented as mean […]SEM. Arrows show dosing.
# A group of 9 tumor bearing mice was sacrificed on day 33 and served as baseline group. All mice were necropsied 51-52 days after tumor cell injection. Tumor volumes and bodyweights were recorded twice weekly during the study, as well as overall veterinarian examination of mice was conducted.
# (§5) Primary tumors, liver, kidney, pancreas, heart, lung, and spleen were collected, fixed in formalin and prepared for histological evaluation. Tumor weights were measured at necropsy, part of the tumors were frozen at −80° C. for LH/CG and LHRH receptor assay determination.
# As a biomarker for drug activity, CA 125 was determined in serum, collected from each individual mouse at necropsy using a Enzyme Linked Immunoassay for quantitative determination of ovarian cancer antigen CA125 (Assay kit Genway, Biotech, Inc. San Diego, CA, Catalog #40-052-115009, #BC-1013 according to the manufacturer).
# LHRH receptor levels were assessed from formalin fixed tumors. Quantitative immunoperoxidase image analysis was conducted with the Ventana Image Analysis System (VIAS) adjunctive computer assisted image analysis system functionally connected to an interactive microscope (Axio Imager). The quantitative analysis was conducted with the program for quantification of Her2/neu receptor that included morphometric and colorimetric analysis. Receptor status results were reported as percentage of cells showing positive staining of the LHRH receptors under the following criteria: 0 non-immunoreactive, 1+: 1-25% positive, 2+: 26-50% positive, 3+: 51-75% positive cells.
# PC-3 xenograft = test: PC-3 prostate cancer xenograft; assay type: in vivo, Nu/Nu mice; conditions: for tumor growth: PC-3 xenograft, CLIP71 5 mg/kg
# Description: In brief, Nu/Nu male mice, outbred strain, age 6 weeks (Charles River) were injected subcutaneously with a PC-3 cells/Matrigel suspension (1×10^6 cells/mouse). Treatment was started on day 15 after tumor cell injection when the tumors were established and continued on days 22 and 29. The doses for the 3 weekly injections were 2, 0.2 and 0.02 mg/kg body weight, given as a bolus single intravenous injection via lateral tail vein.
# A group of 12 tumor bearing mice was sacrificed on day 15 and served as baseline group. All mice were necropsied 35 and 36 days after tumor cell injection. Tumor volumes and bodyweights were recorded twice weekly during the study, as well as overall veterinarian examination of mice was conducted.
# as §5
# [1] = MDA-MB-435S.luc, 1 × 3 wk, 22 d, minimal effective dose study
sequence,measurement,setting,value
"KFAKFAKKFAKFAKKFAK [Phor18, reference compound]",IC50,MDA-MB-435S cells; 24 hours,55100 nM
same,IC50,MDA-MB-435S cells; 48 hours,3000 nM
same,incubation time to maximal efficacy,MDA-MB-435S cells,24 h
same,incubation time to maximal efficacy,MCF-7 cells,24 h
same,incubation time to maximal efficacy,OVCAR-3 cells,24 h
same,IC50,"SKOV-3 cells; SKOV-3 (SKOV-3 and HEK 1A), 24 hours, read-out: IC50",11.8 µM
same,IC50,"SKOV-3 cells; SKOV-3 (p40), listed as CLIP71, read-out: IC50 with increasing incubation time",86 µM and 96 µM and 53 µM and 50 µM
same,IC50,NIH:3T3,> 40 µM
same,tumor volumes and tumor weights,MDA-MB-435S xenograft; CLIP71 plus LHRH 0.2/0.122 mg/kg,did not decrease tumor weights
same,tumor weights,OVCAR-3 xenograft; OVCAR-3 xenograft at necropsy,not effective in reducing tumor weights
same,tumor volume,OVCAR-3 xenograft; OVCAR-3 xenograft,tumor growth was observed; also recorded: no reduction in tumor volume
same,tumor growth,PC-3 xenograft,tumor growth was observed
KFAKFAKKFAKFAKKFAKQHWSYGLRPG [Phor18-LHRH],IC50,MDA-MB-435S cells; 0.5 hour,1200 nM
same,IC50,MDA-MB-435S cells; 1 hour,600 nM
same,incubation time to maximal efficacy,MDA-MB-435S cells,1 h and 0.5 to 1 h
same,IC50,"MCF-7 cells; MCF-7 (p152), read-out: IC50 with increasing incubation time",1800 to 3400 nM
same,incubation time to maximal efficacy,MCF-7 cells,1 h and 0.5 to 1 h
same,IC50,"OVCAR-3 cells; OVCAR-3 (p47), read-out: IC50 with increasing incubation time",500 nM
same,incubation time to maximal efficacy,OVCAR-3 cells,1 h and 0.5 to 1 h
same,incubation time to maximal efficacy,SKOV-3 cells; SKOV-3 cells,24 h
same,IC50,NIH:3T3,> 10 µM
same,Median Tumor Weight vs Baseline p < 0.05 (lowest dose),MDA-MB-435S xenograft; [1],2 µg/kg
same,Median Tumor Weight vs Saline P < 0.05 (lowest dose),MDA-MB-435S xenograft; [1],0.2 µg/kg
same,Remarks / histology of tumors,"MDA-MB-435S xenograft; Phor18-LHRH at doses as low as 0.0002 mg/kg, CLIP71/LHRH 0.2/0.122 mg/kg",significant necrosis
same,lowest concentration with tumor volume reduction compared to baseline,"OVCAR-3 xenograft; 42 days after tumor cell injection, p<0.001",0.2 mg/kg bodyweight
same,Median Tumor Weight vs Baseline p < 0.05 (doses),"OVCAR-3 xenograft; OVCAR-3, 1 × 3 wk, 20 d",0.2 mg/kg
same,Remarks / histology of treated tumors,OVCAR-3 xenograft; OVCAR-3 xenograft,significant necrosis
same,tumor volume,OVCAR-3 xenograft; OVCAR-3 xenograft,Tumor volumes decreased
same,CA125 secretion (serum),OVCAR-3 xenograft; greatest at 0.2 and 2 mg/kg (p<0.0002 vs saline),reduced
same,reduction of LHRH receptor levels,"OVCAR-3 xenograft; treated tumors, immunoperoxidase image analysis",1-2 score points
same,lowest concentration with tumor volume reduction compared to saline controls and CLIP71,"PC-3 xenograft; 22 days after tumor cell injection, p<0.001",0.002 mg/kg bodyweight
same,Median Tumor Weight vs Baseline p < 0.05 (doses),"PC-3 xenograft; PC-3, 1 × 3 wk, 21 d",0.2
same,tumor growth,PC-3 xenograft,effective in arresting tumor growth
